Reference: EP0068806A2, “Basic acyl amides of (5-amino-1,3-dialkylpyrazol-4-yl)(aryl)methanones, processes for their production, and pharmaceutical compositions containing such compounds” (WARNER-LAMBERT COMPANY, priority 1981, dated 1983)

The compounds below were run on Long-Evans rats or squirrel-monkeys (assay: Conditioned lever-press avoidance of electric footshock (antipsychotic activity)). Settings: avoidance test for antipsychotic activity; Long-Evans rats or squirrel-monkeys (species per value not stated).
Type: in vivo
Protocol: Representative compounds of the invention (identified in the examples) were also tested for antipsychotic activity according to the following protocol. The noted compounds had the indicated ED50 values (mg/kg) and are considered active as antipsychotic agents in the test procedure.
Mature male Long-Evans rats or squirrel-monkeys are conditioned to push a lever in order to avoid a painful electric footshock. If the animal fails to push the. lever, he receives a shock every 10 seconds until the lever is pushed. Shocks can be terminated by pushing the lever. Thereafter, as long as the lever is pushed at least once every 20 seconds, there will be no shock.
Each animal acts as its own control; one weekly session is used to establish baseline behavior and another session later in the week is used as a drug session. Once patterns of avoidance are established, the effects of standard and unknown compounds are studied.
All events are electronically programmed and the response to these events counted or used as feed-back to the program.

In order of rising ED50:
1. Cc1nn(C)c(NC(=O)CNCCCN2CCCCC2C)c1C(=O)c1ccccc1F (stereo not drawn) [Compound 20, N-[4-(2-Fluorobenzoyl)-1,3-dimethyl-1H-pyrazol-5-yl]-2-[[3-(2-methyl-1-piperidinyl)propyl]amino]acetamide]  21.4 mg/kg
2. CC1=C(NCCN(C)CC(=O)Nc2c(C(=O)c3ccccc3F)c(C)nn2C)CCC1=O [Compound 38, N-[4-(2-Fluorobenzoyl}-1,3-dimethyl-1H-pyrazol-5-yl]-2-[mothyl[2-[(2-methyl-3-oxo-1-cyclopenten-1-yl}amino]ethyl]amino]acetamide]  21.7 mg/kg
3. CCN(CC)CC(=O)Nc1c(C(=O)c2ccccc2F)c(C)nn1C [Compound 6, 2-(Diethylamino)-N-[4-(2-fluorobenzoyl)-1,3-dimethyl-1H-pyrazol-5-yl]acetamide]  25.6 mg/kg
4. Cc1nn(C)c(NC(=O)CSCCCN2CCCCC2C)c1C(=O)c1ccccc1F (stereo not drawn) [Compound 43, N-[4-(2-Fluorobenzoyl)-1,3-dimethyl-1H-pyrazol-5-yl]-2-[[3-(2-methyl-1-piperidinyl)propyl]thio]acetamide]  26.5 mg/kg
5. Cc1nn(C)c(NC(=O)CN2CC3CCC(CC3)C2)c1C(=O)c1ccccc1F [Compound 9, N-[4-(2-Fluorobenzoyl)-1,3-dinethyl-1H-pyrazol-5-yl]-3-azabicyclo-[3,2,2]nonane-3-acetamide]  36.3 mg/kg
6. Cc1nn(C)c(NC(=O)CNCC2(C)OCCO2)c1C(=O)c1ccccc1F [Compound 8, N-[4-(2-Fluorobenzoyl)-1,3-dimethyl-1H-pyrazol-5-yl]-3-[[(2-methyl-1,3-dioxolan-2-yl)methyl]amino]acetamide]  36.4 mg/kg
7. Cc1nn(C)c(NC(=O)CN2CCCCC2)c1C(=O)c1ccccc1F [Compound 5, N-[4-(2-Fluorobenzoyl)-1,3-dimethyl-1H-pyrazol-5-yl]-1-piperidine-acetamide]  48 mg/kg
8. Cc1nn(C)c(NC(=O)CN2CCCC2)c1C(=O)c1ccccc1F [Compound 1, N-[4-(2-Fluorobenzoyl)-1,3-dimethyl-1H-pyrazol-5-yl]-1-pyrrolidineacetamide]  48.2 mg/kg
9. Cc1nn(C)c(NC(=O)CNCCCN2CCOCC2)c1C(=O)c1ccccc1F [Compound 35]  51.6 mg/kg
